What was measured:
[1] = system: human neutrophils; test: Superoxide production from neutrophils (cytochrome C reduction); assay type: cell-based
Method: Aliquots (8 mL) of heparinized blood from healthy volunteers were layered on 3 mL cushions of 7.3% FICOLL® (Sigma, St. Louis, Mo.) and 15.4% HYPAQUE® (Sigma) and centrifuged at 900 rpm for 30 min at room temperature in a table top centrifuge (Beckman). The neutrophil-rich band just above the FICOLL®-HYPAQUE® cushion was collected and washed with Hanks' balanced salt solution (HBSS) containing 0.1% gelatin. Residual erythrocytes were removed by hypotonic lysis with 0.2% NaCl. The neutrophil preparation was washed twice with HBSS containing 0.1% gelatin and used immediately.
Superoxide generation is one of the hallmarks of neutrophil activation. A variety of activators potentiate superoxide generation by neutrophils. The effect of the PI3Kδ inhibitor D-000 on superoxide generation by three different agonists: TNF1α, IgG, and fMLP, each representing separate classes of activator, was measured. Superoxide generated by the neutrophils was measured by monitoring the change in absorbance upon reduction of cytochrome C by modification of the method described by Green et al., (pp. 14.5.1-14.5.11 in Supp. 12, Curr Protocols Immunol (Eds., Colligan et al.) (1994)), as follows. Individual wells of a 96-well plate were coated overnight at 4° C. with 50 μL of 2 mg/mL solution of human fibrinogen or IgG. The wells were washed with PBS and the following reagents were added to each well: 50 μL of HBSS or superoxide dismutase (1 mg/mL), 50 μL of HBSS or TNF1α (50 ng/mL), 50 μL cytochrome C (2.7 mg/mL), and 100 μL of purified human neutrophil suspension ([…] cells/mL). The plate was centrifuged for 2 min at 200 rpm and absorbance at 550 nm was monitored for 2 hr. To measure the relative amounts of superoxide generated, values obtained from the superoxide dismutase-containing wells were subtracted from all, and normalized to the values obtained from the wells without any inhibitor.

[2] = system: human neutrophils; test: Bactericidal capacity of neutrophils (Staphylococcus aureus killing); assay type: cell-based; settings: FIG. 6; versus DMSO control
Excerpt: Given that the PI3Kδ inhibitor D-000 affects certain neutrophil functions detailed above, it was of interest to see whether the compound affects neutrophil-mediated bacterial killing. The effect of D-000 on neutrophil-mediated Staphylococcus aureus killing was studied according to the method described by Clark and Nauseef (pp. 7.23.4-7.23.6 in Vol. 2, Supp. 6, Curr Protocols Immunol (Eds., Colligan et al.) (1994)). Purified human neutrophils (5×10^6 cells/mL) (treated with either DMSO or a serial dilution of D-000 in DMSO) were mixed with autologous serum. Overnight-grown S. aureus cells were washed, resuspended in HBSS, and added to the serum-opsonized neutrophils at a 10:1 ratio. Neutrophils were allowed to internalize the bacteria by phagocytosis by incubation at 37° C. for 20 min. The noninternalized bacteria were killed by 10 units/mL lysostaphin at 37° C. for 5 min and the total mixture was rotated at 37° C. Samples were withdrawn at various times for up to 90 min and the neutrophils were lysed by dilution in water. Viable bacteria were counted by plating appropriate dilutions on trypticase-soy-agar plate and counting the S. aureus colonies after overnight growth.

[3] = system: osteoclasts; test: Osteoclast function, pit depths on dentine slices; assay type: cell-based, mouse
Method: To analyze the effect of the PI3Kδ inhibitor D-000 on osteoclasts, mouse bone marrow cells were isolated and differentiated them to osteoclasts by treating the cells with Macrophage Colony Stimulating Factor^−1 (mCSF^−1) and Osteoprotegerin Ligand (OPGL) in serum-containing medium (αMEM with 10% heat-inactivated FBS; Sigma) for 3 days. On day four, when the osteoclasts had developed, the medium was removed and cells were harvested. The osteoclasts were plated on dentine slices at 10^5 cells/well in growth medium, i.e., αMEM containing 1% serum and 2% BSA with […] and 10 ng/mL mCSF-1. After 3 hr, the medium was changed to 1% serum and 1% BSA, with or without osteopontin (25 μg/mL) and the PI3K inhibitors (100 nM). The medium was changed every 24 hours with fresh osteopontin and the inhibitors. At 72 hr, the medium was removed, and the dentine surfaces were washed with water to remove cell debris and stained with acid hematoxylin. Excess stain was washed and the pit depths were quantitated using confocal microscopy.

[4] = system: RWLeu4; test: Cancer cell proliferation, [3H]-thymidine incorporation, RWLeu4; assay type: cell-based; settings: Homo sapiens, 120 h; RWLeu4 line; five days; read-out: EC50, inhibition of cell growth
Method: (§1) The effect of compounds of the invention on cancer cell proliferation was evaluated by testing one of the compounds against a panel of Chronic Myeloid Leukemia (CML) cell lines, including KU812, RWLeu4, K562, and MEG-01.
(§2) The inhibitory activity of the compound (D-000, dissolved in DMSO) was determined as follows. The tested compound was added in a series of concentrations (0.001 μM to 20 μM) to 96-well microtiter plates with cells (1000 to 5000 cells/well). Plates were incubated for five days at 37° C. during which the control cultures without test compound were able to undergo at least two cell-division cycles. Cell growth was measured by incorporation of [^3H]-thymidine for eighteen hours added at days three, four, and five. Cells were transferred to a filter, washed and the radioactivity counted using a Matrix 96 beta counter (Packard). The percentage of cell growth was measured as follows: […]

[5] = system: MEG-01; test: Cancer cell proliferation, [3H]-thymidine incorporation, MEG-01; assay type: cell-based; settings: MEG-01 line; 0.001 μM to 20 μM
Method: as §1, §2

O=c1c2ccccc2nc(CSc2ncnc3[nH]cnc23)n1-c1ccccc1Cl [Compound D-000, 3-(2-chlorophenyl)-2-(9H-purin-6-ylsulfanylmethyl)-3H-quinazolin-4-one]
IC50 ([1]; Homo sapiens, Neutrophil, TNF stimulus, FIG. 2, read-out: Concentration reducing TNF-induced superoxide generation to its half-maximal value): ~3 µM
Effect on superoxide generation induced by IgG ([1]; IgG stimulus, at 10 μM, FIG. 2): did not have any effect
Effect on fMLP-induced superoxide generation ([1]; fMLP stimulus, FIG. 3): inhibited
Effect on neutrophil-mediated killing of S. aureus [2]: does not significantly affect
Effect on osteoclast activity ([3]; 100 nM): almost completely inhibited
Pit depths (osteoclast activity), Table 1 ([3]; inhibitor 100 nM + osteopontin (OPN) 25 μg/mL, 72 hr, two experiments, OPN alone 10 ± 0.5 and 9 ± 0.4): 1
EC50 [4]: ~2 µM
Effect on cell growth [5]: not found to exhibit an effect

Reference: patent US20200061062A1, “INHIBITORS OF HUMAN PHOSPHATIDYLINOSITOL 3-KINASE DELTA” (ICOS Corporation, priority 2000, published 2020)
